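Exposure lasted 48 hours, with cells grown in 96-well plates and compounds tested at five concentrations. GI50 marks 50% less growth. TGI marks complete inhibition of growth.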
Legend:
Test in all cases: inhibition of tumour cell growth, NCI panel, 48 h
K-562 leukemia = tested on: K-562 leukemia
EKVX NSCLC = tested on: EKVX NSCLC
786-0 renal = tested on: 786-0 renal
MOLT-4 leukemia = tested on: MOLT-4 leukemia
MDA-MB-231 breast = tested on: MDA-MB-231 breast
T-47D breast = tested on: T-47D breast
HCT-116 colon = tested on: HCT-116 colon
UACC-257 melanoma = tested on: UACC-257 melanoma
SK-MEL-5 melanoma = tested on: SK-MEL-5 melanoma
SNB-19 CNS = tested on: SNB-19 CNS

Structure (SMILES)	TGI (K-562 leukemia)	TGI (EKVX NSCLC)	TGI (786-0 renal)	TGI (MOLT-4 leukemia)	TGI (MDA-MB-231 breast)	TGI (T-47D breast)	TGI (HCT-116 colon)	TGI (UACC-257 melanoma)	TGI (SK-MEL-5 melanoma)	TGI (SNB-19 CNS)	GI50 (K-562 leukemia)	GI50 (EKVX NSCLC)	GI50 (MOLT-4 leukemia)	GI50 (MDA-MB-231 breast)	GI50 (T-47D breast)	GI50 (HCT-116 colon)	GI50 (UACC-257 melanoma)	GI50 (SK-MEL-5 melanoma)	GI50 (SNB-19 CNS)
C=C(C)OCOCCOC	> 100 µM	> 100 µM	> 100 µM	> 100 µM	> 100 µM	> 100 µM	> 100 µM	> 100 µM	> 100 µM	> 100 µM	–	–	–	–	–	–	–	–	–
CC[C@H](Nc1nc(C)nc(N)c1C#N)c1nc2cccc(NCc3ccc(C(=O)NO)cc3)c2c(=O)n1-c1ccccc1	> 100 µM	3.21 µM	–	5.82 µM	3.36 µM	7.06 µM	2.5 µM	4.16 µM	3.47 µM	3.97 µM	2.2 µM	1.56 µM	1.36 µM	1.4 µM	1.86 µM	1.01 µM	1.83 µM	1.84 µM	1.63 µM
COc1ccc(/C=c2\s/c(=C3/SC(=S)N(c4ccccc4)C3=O)n(-c3ccccc3)c2=O)cc1	> 100 µM	> 100 µM	> 100 µM	72.8 µM	> 100 µM	> 100 µM	> 100 µM	–	> 100 µM	> 100 µM	–	–	–	–	–	–	–	–	–
COc1ccccc1C1Nn2c(nc3ccccc3c2=O)N1c1ccc(C)cc1 (stereo not given)	33.8 µM	34.6 µM	8.37 µM	11.4 µM	18.3 µM	21 µM	16 µM	43.3 µM	22.5 µM	21.2 µM	–	–	–	–	–	–	–	–	–
Cc1c(CN2CCN(C)CC2)c(CN2CCN(C)CC2)c(C)n1-c1ccc(Cl)cc1	> 100 µM	> 100 µM	46.4 µM	82.8 µM	> 100 µM	46.4 µM	> 100 µM	29.1 µM	31.7 µM	> 100 µM	–	–	–	–	–	–	–	–	–
Cc1cc(C)c2c(=O)cc(-c3cccc(F)c3)[nH]c2n1	> 32.1 µM	> 100 µM	> 64.2 µM	> 53.5 µM	4.17 µM	> 100 µM	0.433 µM	> 100 µM	6.38 µM	> 100 µM	–	–	–	–	–	–	–	–	–
Cc1[nH]c(=O)nc(NCCNCCO)c1C(=O)Nc1cccc2cc3ccccc3cc12	> 100 µM	> 100 µM	> 100 µM	> 100 µM	> 100 µM	> 100 µM	> 100 µM	> 100 µM	> 100 µM	> 100 µM	–	–	–	–	–	–	–	–	–
CCOc1ccc(Nc2nc(N)nc(N)c2N)cc1	50.1 µM	> 100 µM	52.3 µM	> 100 µM	> 100 µM	54.3 µM	> 100 µM	> 100 µM	> 100 µM	93.4 µM	–	–	–	–	–	–	–	–	–
Cn1c(=O)c2c(nc3n(Cc4ccccc4)c(=O)c(NCCCBr)cn23)n(C)c1=O	> 100 µM	> 100 µM	> 100 µM	> 100 µM	> 100 µM	> 100 µM	> 100 µM	> 100 µM	> 100 µM	> 100 µM	–	–	–	–	–	–	–	–	–
Cc1cc2ncn(C3CCCCO3)c2cc1C (stereo not given)	> 100 µM	> 100 µM	> 100 µM	> 100 µM	> 100 µM	> 100 µM	> 100 µM	> 100 µM	> 100 µM	> 100 µM	–	–	–	–	–	–	–	–	–
CS(=O)(=O)Nc1ccc2c(c1)N(S(C)(=O)=O)CC2CCl (stereo not given)	> 100 µM	> 100 µM	> 100 µM	> 100 µM	> 100 µM	> 100 µM	> 100 µM	> 100 µM	> 100 µM	–	–	–	–	–	–	–	–	–	–
c1ccc2c(c1)Sc1nccc3ccnc-2c13	> 100 µM	> 100 µM	> 100 µM	56.6 µM	> 100 µM	> 100 µM	> 100 µM	> 100 µM	> 100 µM	> 100 µM	–	–	–	–	–	–	–	–	–
Cc1cc(S(=O)(=O)/N=C(/C(=C=[N-])C#N)[n+]2ccc(N(C)C)cc2)c(SCC(=O)O)cc1Cl	> 100 µM	> 100 µM	> 100 µM	> 100 µM	> 100 µM	> 100 µM	> 100 µM	> 100 µM	> 100 µM	> 100 µM	–	–	–	–	–	–	–	–	–
C=C1C(OC2O[C@@H]3O[C@@]4(C)CC[C@H]5[C@H](C)CC[C@@H](C2=C)[C@@]35O4)O[C@@H]2O[C@@]3(C)CC[C@H]4[C@H](C)CC[C@@H]1[C@@]24O3 (stereo not given in full)	> 50 µM	> 50 µM	> 50 µM	> 50 µM	> 50 µM	> 50 µM	> 50 µM	> 50 µM	> 50 µM	> 50 µM	–	–	–	–	–	–	–	–	–
Cc1cc(C)c(S(=O)(=O)N(CCCN)OCCCON(CCCN)S(=O)(=O)c2c(C)cc(C)cc2C)c(C)c1	> 22.5 µM	19.4 µM	5.86 µM	10.7 µM	3.31 µM	3.36 µM	3.17 µM	3.44 µM	> 42.8 µM	3.17 µM	–	–	–	–	–	–	–	–	–
C[C@]12CCC(=O)[C@@H](CCC3=CC(=O)C=CC3=O)[C@@H]1CCC2=O	> 100 µM	47.5 µM	41.1 µM	> 100 µM	49.2 µM	> 81.7 µM	> 50.5 µM	39 µM	20.7 µM	> 100 µM	–	–	–	–	–	–	–	–	–
COC(=O)C1(CCCCCBr)CCCCCCCCCCC1=O (stereo not given)	> 100 µM	> 100 µM	> 100 µM	35.6 µM	84.6 µM	> 100 µM	> 100 µM	70.2 µM	35.1 µM	> 100 µM	–	–	–	–	–	–	–	–	–
COC(=O)C1C(C(=O)OC)C2(OC(c3ccc(Cl)cc3)=CC2=O)C12OC(c1ccc(Cl)cc1)=CC2=O (stereo not given)	53.5 µM	54.9 µM	41 µM	49.2 µM	78.6 µM	63.3 µM	30.4 µM	48.8 µM	37.9 µM	> 100 µM	–	–	–	–	–	–	–	–	–
CCn1c2ccc(C(=O)CCCN3CCCCC3)cc2c2cc(C(=O)CCCN3CCCCC3)ccc21	> 22.6 µM	15.8 µM	2.78 µM	–	4.74 µM	49.9 µM	10.8 µM	3.77 µM	2.92 µM	10.6 µM	–	–	–	–	–	–	–	–	–
COc1cc(C(c2c(O)c3ccccc3oc2=O)c2c(O)c3ccccc3oc2=O)cc(Br)c1O	> 100 µM	34.2 µM	37.8 µM	64.8 µM	32.8 µM	53.3 µM	32.7 µM	33 µM	29.8 µM	36.1 µM	–	–	–	–	–	–	–	–	–
